Assay [1] has as its target T1, glutathione S-transferase (GST)-linked full-length human Syk protein (Homo sapiens, UniProt P43405).
T1 construct: glutathione S-transferase (GST)-linked full-length human Syk protein; purchased Carna Biosciences; host or cells: Baculovirus expression system
Description: Syk enzyme assay. Type of assay: biochemical. The conditions noted are these: 0.83 nM Syk, time-resolved fluorescence; read-out: IC50 of Syk-inhibitory activity. The method, boiled down:
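Phosphotyrosine on a biotin-peptide substrate (0.5 μM) was read by time-resolved fluorescence at 615 and 665 nm with Eu-anti-pTyr antibody and APC-streptavidin after 1 h EDTA stop.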

For assay [2], the system named is THP-1 cells (TNFα secretion on human IgG-coated plate). Description: TNFα generation assay. The format is cell-based. The settings on record: IFN-γ differentiated THP-1 cells, 7 hours, AlphaLISA, read-out: IC50 of TNFα generation inhibitory activity. The method, boiled down: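 THP-1 cells were differentiated with 10 ng/ml IFN-γ for 2 days, then preincubated with compound for 30 min at room temperature. They were then plated at 5×10^4 cells/well on plates coated with human IgG (10 μg/ml). TNFα secreted over 7 h of culture was quantified by AlphaLISA.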
For orientation: Bead proximity is the source of the signal in Alpha formats.

The results in this text go back to patent US9051310B2, “Nicotinamide derivative or salt thereof” (FUJIFILM Corporation, priority 2011, dated 2015).

With `COCCn1nc(OC)c2cc(Nc3nc(N[C@H](C4CC4)[C@H](C)N)c(F)cc3C(N)=O)ccc21` [Example 2-539], the values for the IC50 in assay [1] and in assay [2] were below 10 nM and 130 to 200 nM, respectively.
The corresponding values for `COC[C@@H](Nc1nc(Nc2ccc3c(c2)c(OC(F)F)nn3C)c(C(N)=O)cc1F)[C@H](C)N` [Example 2-173, 6-(((2S,3S)-3-amino-1-methoxybutan-2-yl)amino)-2-((3-(difluoromethoxy)-1-methyl-1H-indazol-5-yl)amino)-5-fluoronicotinamide] are below 10 nM and 65 to 130 nM.
For `CCn1ncc2cc(Nc3nc(N[C@H](c4ccccc4F)[C@H](C)N)c(F)cc3C(N)=O)ccc21` [Example 2-410, 6-(((1R,2S)-2-amino-1-(2-fluorophenyl)propyl)amino)-2-((1-ethyl-1H-indazol-5-yl)amino)-5-fluoronicotinamide], the values for the IC50 in assay [1] and in assay [2] were below 10 nM and 65 to 130 nM, respectively.
The matching figures for `Cc1cccc(Nc2nc(N[C@H](C3CCC3)[C@H](C)N)c(F)cc2C(N)=O)c1` [Example 2-25, 6-(((1R,2S)-2-amino-1-cyclobutylpropyl)amino)-5-fluoro-2-(m-tolylamino)nicotinamide]: below 10 nM and 130 to 200 nM.
Regarding `NC(=O)c1cc(F)c(N[C@@H]2CCCC[C@@H]2N)nc1Nc1cccc(F)c1` [Example 2-440, 6-(((1R,2S)-2-aminocyclohexyl)amino)-5-fluoro-2-((3-fluorophenyl)amino) nicotinamide], the IC50 is below 10 nM in assay [1] and 130 to 200 nM in assay [2].
Consider `COC[C@@H](Nc1nc(Nc2cc(F)c3c(c2)c(OC)nn3C)c(C(N)=O)cc1F)[C@H](C)N` [Example 2-159, 6-(((2S,3S)-3-amino-1-methoxybutan-2-yl)amino)-5-fluoro-2-((7-fluoro-3-methoxy-1-methyl-1H-indazol-5-yl)amino)nicotinamide], for which the IC50 in assay [1] was below 10 nM; in assay [2], 65 to 130 nM.
The corresponding values for `COC[C@@H](Nc1nc(Nc2cc(Cl)c3c(cnn3C)c2)c(C(N)=O)cc1F)[C@H](C)N` [Example 2-149, 6-(((2S,3S)-3-amino-1-methoxybutan-2-yl)amino)-2-((7-chloro-1-methyl-1H-indazol-5-yl)amino)-5-fluoronicotinamide] are below 10 nM and 65 to 130 nM.
The matching figures for `C[C@H](N)[C@H](Nc1nc(Nc2ccc3c(cnn3CC(F)F)c2)c(C(N)=O)cc1F)C1CC1` [Example 2-71]: below 10 nM and below 65 nM.
The corresponding values for `CCC[C@@H](Nc1nc(Nc2cnc(OCC)c(-n3ccnn3)c2)c(C(N)=O)cc1F)[C@H](C)N` [Example 2-207, 6-(((2S,3R)-2-aminohexan-3-yl)amino)-2-((6-ethoxy-5-(1H-1,2,3-triazol-1-yl)pyridin-3-yl)amino)-5-fluoronicotinamide] are below 10 nM and 65 to 130 nM.
With `CC[C@H](N)[C@@H](CC)Nc1nc(Nc2ccc3c(cnn3CCOC)c2)c(C(N)=O)cc1F` [Example 2-266, 6-(((3R,4S)-4-aminohexan-3-yl)amino)-5-fluoro-2-((1-(2-methoxyethyl)-1H-indazol-5-yl)amino)nicotinamide], the IC50 in assay [1] is below 10 nM; in assay [2], 65 to 130 nM.
The corresponding values for `C[C@H](N)[C@H](Nc1nc(Nc2ccc3c(c2)c(N(C)C)nn3C)c(C(N)=O)cc1F)C1CC1` [Example 2-72, 6-(((1R,2S)-2-amino-1-cyclopropylpropyl)amino)-2-((3-(dimethylamino)-1-methyl-1H-indazol-5-yl)amino)-5-fluoronicotinamide] are below 10 nM and 130 to 200 nM.
As for `COc1cc(Nc2nc(N[C@H](c3cccc(F)c3)[C@H](C)N)c(F)cc2C(N)=O)cc(OC)n1` [Example 2-414], the IC50 in assay [1] is below 10 nM; in assay [2] it was 65 to 130 nM.
The corresponding values for `CCC[C@@H](Nc1nc(Nc2cc(F)c3c(c2)c(OC)nn3C)c(C(N)=O)cc1F)[C@H](C)N` [Example 2-153, 6-(((2S,3R)-2-aminohexan-3-yl)amino)-5-fluoro-2-((7-fluoro-3-methoxy-1-methyl-1H-indazol-5-yl)amino)nicotinamide] are below 10 nM and 130 to 200 nM.
Regarding `CCn1ncc2c(Nc3nc(N[C@@H]4CCOC[C@@H]4N)c(F)cc3C(N)=O)cc(F)cc21` [Example 2-370, 6-(((3R,4R)-3-aminotetrahydro-2H-pyran-4-yl)amino)-2-((1-ethyl-6-fluoro-1H-indazol-4-yl)amino)-5-fluoronicotinamide], the figures for the IC50 in assay [1] and in assay [2] were below 10 nM and 130 to 200 nM, respectively.
The corresponding values for `C[C@H](N)[C@H](Nc1nc(Nc2ccnc(N3CCOCC3)c2F)c(C(N)=O)cc1F)C1CC1` [Example 2-233, 6-(((1R,2S)-2-amino-1-cyclopropylpropyl)amino)-5-fluoro-2-((3-fluoro-2-morpholinopyridin-4-yl)amino)nicotinamide] are 10 to 50 nM and 130 to 200 nM.
For the compound `CC[C@H](N)[C@@H](C)Nc1nc(Nc2ccc3c(c2)c(OC)nn3CCOC)c(C(N)=O)cc1F` [Example 2-129, 6-(((2R,3S)-3-aminopentan-2-yl)amino)-5-fluoro-2-((3-methoxy-1-(2-methoxyethyl)-1H-indazol-5-yl)amino)nicotinamide], the figures for the IC50 in assay [1] and in assay [2] were 10 to 50 nM and 130 to 200 nM, respectively.
The matching figures for `CC[C@H](N)[C@@H](C)Nc1nc(Nc2ccnc(OCCOC)c2)c(C(N)=O)cc1F` [Example 2-42, 6(((2R,3S)-3-aminopentan-2-yl)amino)-5-2-((2-(2-methoxyethoxy)pyridin-4-yl)amino)nicotinamide]: 10 to 50 nM and 65 to 130 nM.
The corresponding values for `COc1nn(C)c2ccc(Nc3nc(N[C@@H](CN)CC(C)C)c(F)cc3C(N)=O)cc12` [Example 2-78, (R)-6-((1-amino-4-methylpentan-2-yl)amino)-5-fluoro-2-((3-methoxy-1-methyl-1H-indazol-5-yl)amino)nicotinamide] are below 10 nM and 65 to 130 nM.
The matching figures for `CC[C@H](N)[C@@H](C)Nc1nc(Nc2ccc3c(c2)c(OC)nn3C)c(C(N)=O)cc1F` [Example 2-84, 6-(((2R,3S)-3-aminopentan-2-yl)amino)-5-fluoro-2-((3-methoxy-1-methyl-1H-indazol-5-yl)amino)nicotinamide]: below 10 nM and 130 to 200 nM.
Consider `CC(C)C[C@@H](Nc1nc(Nc2ccc3c(c2)c(OC(F)F)nn3C)c(C(N)=O)cc1F)[C@H](C)N` [Example 2-172, 6-(((2S,3R)-2-amino-5-methylhexan-3-yl)amino)-2-((3-(difluoromethoxy)-1-methyl-1H-indazol-5-yl)amino)-5-fluoronicotinamide], for which the results for the IC50 in assay [1] and in assay [2] were below 10 nM and 130 to 200 nM, respectively.
The matching figures for `CC(=O)c1cccc(Nc2nc(N[C@H](C3CC3)[C@H](C)N)c(F)cc2C(N)=O)c1` [Example 2-482, 2-((3-acetylphenyl)amino)-6-(((1R,2S)-2-amino-1-cyclopropylpropyl)amino)-5-fluoronicotinamide]: below 10 nM and 65 to 130 nM.
The corresponding values for `COCCn1ncc2c(Nc3nc(N[C@@H]4CCCC[C@@H]4N)c(F)cc3C(N)=O)cc(F)cc21` [Example 2-374, 6-(((1R,2S)-2-aminocyclohexyl)amino)-5-fluoro-2-((6-fluoro-1-(2-methoxyethyl)-1H-indazol-4-yl)amino)nicotinamide] are below 10 nM and 130 to 200 nM.
